From patent US11702422B2, “Imidazopyridazines as modulators of IL-17” (Janssen Pharmaceutica NV, priority 2020, dated 2023)

Assays:
[1] = system: IL-17A-induced G-CSF production in human normal keratinocyte (NHK); experiment: NHK Assay: IL-17A-induced G-CSF production in human normal keratinocytes; type: cell-based; settings: Homo sapiens, Keratinocyte, 24 h, adult normal human keratinocytes, IL-17A 5 ng/mL, simple average if tested more than once
Summary of the method: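 IL-17A (5 ng/mL final) was pre-incubated 1 h at rt with titrated compound and then added to adult normal human keratinocytes (5% FBS, 0.2% DMSO) for 24 h at 37° C. Supernatant G-CSF was measured by HTRF against a standard curve to derive IC50. Viability was checked by CellTiter-Glo.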

[2] = target: IL-17A(FLAG-Tagged): IL-17RA(His-Tagged) (Homo sapiens, UniProt Q16552, K93Q); experiment: IL-17A(FLAG-Tagged): IL-17RA(His-Tagged) Binding Disruption Eu-HTRF Assay; settings: IL-17A/IL-17RA binding disruption, simple average if tested more than once
Sequence of UniProt Q16552 (Q16552 with tags, fused parts or gaps K93Q): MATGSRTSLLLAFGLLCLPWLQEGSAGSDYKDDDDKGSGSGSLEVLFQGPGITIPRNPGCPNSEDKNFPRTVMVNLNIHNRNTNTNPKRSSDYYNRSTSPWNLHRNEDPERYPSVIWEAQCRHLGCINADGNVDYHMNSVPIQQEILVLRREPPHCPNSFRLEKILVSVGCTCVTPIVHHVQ
Summary of the method: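 IC50 comes from a one-site competition fit of the HTRF 665/620 nm ratio. Compound dilutions (2-fold, 22 points) were held 1 h rt with FLAG-tagged IL-17A dimer, then His-tagged IL-17RA plus Eu-cryptate anti-FLAG and D2 anti-His antibodies were added for 2 h rt.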

CC(F)(F)c1cccc(C(=O)N[C@H](c2cn3ncc([C@H](NC(=O)CCC(F)(F)F)C4CC4)cc3n2)C2CCC(F)(F)CC2)n1 [Example 230, N—((S)-(7-((R)-Cyclopropyl(4,4,4-trifluorobutanamido)methyl)imidazo[1,2-b]pyridazin-2-yl)(4,4-difluorocyclohexyl)methyl)-6-(1,1-difluoroethyl)picolinamide]
IC50 [1]: > 20000 nM | IC50 [2]: 2000 nM

O=C(CCC(F)(F)F)N[C@@H](c1cnn2cc([C@@H](NC(=O)c3ccccc3CC(F)(F)F)C3CCC(F)(F)CC3)nc2c1)C1CC1 [Example 231, N—((S)-(7-((R)-Cyclopropyl(4,4,4-trifluorobutanamido)methyl)imidazo[1,2-b]pyridazin-2-yl)(4,4-difluorocyclohexyl)methyl)-2-(2,2,2-trifluoroethyl)benzamide]
IC50 [1]: > 20000 nM | IC50 [2]: 320 nM

CC(C)c1oncc1C(=O)N[C@H](c1cn2ncc([C@H](NC(=O)CCC(F)(F)F)C3CC3)cc2n1)C1CCC(F)(F)CC1 [Example 232, N—((S)-(7-((R)-Cyclopropyl(4,4,4-trifluorobutanamido)methyl)imidazo[1,2-b]pyridazin-2-yl)(4,4-difluorocyclohexyl)methyl)-5-isopropylisoxazole-4-carboxamide]
IC50 [1]: 65 nM | IC50 [2]: 43 nM

[2H]C([2H])([2H])C([2H])([2H])n1nccc1C(=O)N[C@H](c1cn2ncc([C@H](NC(=O)CCC(F)(F)F)C3CC3)cc2n1)C1CCC(F)(F)CC1 [Example 233, N—((S)-(7-((R)-Cyclopropyl(4,4,4-trifluorobutanamido)methyl)imidazo[1,2-b]pyridazin-2-yl)(4,4-difluorocyclohexyl)methyl)-1-(ethyl-d5)-1H-pyrazole-5-carboxamide]
IC50 [1]: 51 nM | IC50 [2]: 47 nM

[2H]C([2H])([2H])C([2H])([2H])n1nccc1C(=O)N[C@H](c1cn2ncc([C@H](NC(=O)CC3CC(F)(F)C3)C3CC3)cc2n1)C1CCC(F)(F)CC1 [Example 234, N—((S)-(7-((R)-Cyclopropyl(2-(3,3-difluorocyclobutyl)acetamido)methyl)imidazo[1,2-b]pyridazin-2-yl)(4,4-difluorocyclohexyl)methyl)-1-(ethyl-d5)-1H-pyrazole-5-carboxamide]
IC50 [1]: 52 nM | IC50 [2]: 85 nM

O=C(CCC(F)(F)F)N[C@@H](c1cnn2cc([C@@H](NC(=O)c3conc3C3COC3)C3CCC(F)(F)CC3)nc2c1)C1CC1 [Example 235, N—((S)-(7-((R)-Cyclopropyl(4,4,4-trifluorobutanamido)methyl)imidazo[1,2-b]pyridazin-2-yl)(4,4-difluorocyclohexyl)methyl)-3-(oxetan-3-yl)isoxazole-4-carboxamide]
IC50 [1]: 220 nM | IC50 [2]: 100 nM

O=C(CCC(F)(F)F)N[C@@H](c1cnn2cc([C@@H](NC(=O)c3conc3CC3CC3)C3CCC(F)(F)CC3)nc2c1)C1CC1 [Example 236, N—((S)-(7-((R)-Cyclopropyl(4,4,4-trifluorobutanamido)methyl)imidazo[1,2-b]pyridazin-2-yl)(4,4-difluorocyclohexyl)methyl)-3-(cyclopropylmethyl)isoxazole-4-carboxamide]
IC50 [1]: 360 nM | IC50 [2]: 46 nM

O=C(CCC(F)(F)F)N[C@@H](c1cnn2cc([C@@H](NC(=O)c3conc3COC(F)F)C3CCC(F)(F)CC3)nc2c1)C1CC1 [Example 237, N—((S)-(7-((R)-Cyclopropyl(4,4,4-trifluorobutanamido)methyl)imidazo[1,2-b]pyridazin-2-yl)(4,4-difluorocyclohexyl)methyl)-3-((difluoromethoxy)methyl)isoxazole-4-carboxamide]
IC50 [1]: 88 nM | IC50 [2]: 52 nM

CCOc1nocc1C(=O)N[C@H](c1cn2ncc([C@H](NC(=O)CCC(F)(F)F)C3CC3)cc2n1)C1CCC(F)(F)CC1 [Example 238, N—((S)-(7-((R)-Cyclopropyl(4,4,4-trifluorobutanamido)methyl)imidazo[1,2-b]pyridazin-2-yl)(4,4-difluorocyclohexyl)methyl)-3-ethoxyisoxazole-4-carboxamide]
IC50 [1]: 830 nM | IC50 [2]: 190 nM

COc1nocc1C(=O)N[C@H](c1cn2ncc([C@H](NC(=O)CCC(F)(F)F)C3CC3)cc2n1)C1CCC(F)(F)CC1 [Example 239, N—((S)-(7-((R)-Cyclopropyl(4,4,4-trifluorobutanamido)methyl)imidazo[1,2-b]pyridazin-2-yl)(4,4-difluorocyclohexyl)methyl)-3-methoxyisoxazole-4-carboxamide]
IC50 [1]: 1300 nM | IC50 [2]: 430 nM

O=C(CCC(F)(F)F)N[C@@H](c1cnn2cc([C@@H](NC(=O)c3ccnn3C3CC3)C3CCC(F)(F)CC3)nc2c1)C1CC1 [Example 240, 1-Cyclopropyl-N—((S)-(7-((R)-cyclopropyl(4,4,4-trifluorobutanamido)methyl)imidazo[1,2-b]pyridazin-2-yl)(4,4-difluorocyclohexyl)methyl)-1H-pyrazole-5-carboxamide]
IC50 [1]: 210 nM | IC50 [2]: 130 nM

CC(C)n1nccc1C(=O)N[C@H](c1cn2ncc([C@H](NC(=O)CC3(C(F)(F)F)CC3)C3CC3)cc2n1)C1CCC(F)(F)CC1 [Example 244, N—((S)-(7-((R)-Cyclopropyl(2-(1-(trifluoromethyl)cyclopropyl)acetamido)methyl)imidazo[1,2-b]pyridazin-2-yl)(4,4-difluorocyclohexyl)methyl)-1-isopropyl-1H-pyrazole-5-carboxamide]
IC50 [1]: 120 nM | IC50 [2]: 140 nM

Cc1nonc1C(=O)N[C@H](c1cn2ncc([C@H](NC(=O)CC3(C(F)(F)F)CC3)C3CC3)cc2n1)C1CCC(F)(F)CC1 [Example 245, N—((S)-(7-((R)-Cyclopropyl(2-(1-(trifluoromethyl)cyclopropyl)acetamido)methyl)imidazo[1,2-b]pyridazin-2-yl)(4,4-difluorocyclohexyl)methyl)-4-methyl-1,2,5-oxadiazole-3-carboxamide]
IC50 [1]: 290 nM | IC50 [2]: 140 nM

CC(C)n1nccc1C(=O)N[C@H](c1cn2ncc([C@H](NC(=O)CC3CCC3)C3CC3)cc2n1)C1CCC(F)(F)CC1 [Example 246, N—((S)-(7-((R)-(2-Cyclobutylacetamido)(cyclopropyl)methyl)imidazo[1,2-b]pyridazin-2-yl)(4,4-difluorocyclohexyl)methyl)-1-isopropyl-1H-pyrazole-5-carboxamide]
IC50 [1]: 41 nM | IC50 [2]: 90 nM

Cc1nonc1C(=O)N[C@H](c1cn2ncc([C@H](NC(=O)CC3CCC3)C3CC3)cc2n1)C1CCC(F)(F)CC1 [Example 247, N—((S)-(7-((R)-(2-Cyclobutylacetamido)(cyclopropyl)methyl)imidazo[1,2-b]pyridazin-2-yl)(4,4-difluorocyclohexyl)methyl)-4-methyl-1,2,5-oxadiazole-3-carboxamide]
IC50 [1]: 190 nM | IC50 [2]: 62 nM

CC(C)n1nccc1C(=O)N[C@H](c1cn2ncc([C@H](NC(=O)CC34CC(C3)C4)C3CC3)cc2n1)C1CCC(F)(F)CC1 [Example 248, N—((S)-(7-((R)-(2-(Cicyclo[1.1.1]pentan-1-yl)acetamido)(cyclopropyl)methyl)imidazo[1,2-b]pyridazin-2-yl)(4,4-difluorocyclohexyl)methyl)-1-isopropyl-1H-pyrazole-5-carboxamide]
IC50 [1]: 37 nM | IC50 [2]: 49 nM

Cc1nonc1C(=O)N[C@H](c1cn2ncc([C@H](NC(=O)CC34CC(C3)C4)C3CC3)cc2n1)C1CCC(F)(F)CC1 [Example 249, N—((S)-(7-((R)-(2-(Bicyclo[1.1.1]pentan-1-yl)acetamido)(cyclopropyl)methyl)imidazo[1,2-b]pyridazin-2-yl)(4,4-difluorocyclohexyl)methyl)-4-methyl-1,2,5-oxadiazole-3-carboxamide]
IC50 [1]: 98 nM | IC50 [2]: 24 nM

Cc1nonc1C(=O)N[C@H](c1cn2ncc([C@H](NC(=O)CCC(F)F)C3CC3)cc2n1)C1CCC(F)(F)CC1 [Example 250, N—((S)-(7-((R)-Cyclopropyl(4,4-difluorobutanamido)methyl)imidazo[1,2-b]pyridazin-2-yl)(4,4-difluorocyclohexyl)methyl)-4-methyl-1,2,5-oxadiazole-3-carboxamide]
IC50 [1]: 390 nM | IC50 [2]: 98 nM

CC(C)n1nccc1C(=O)N[C@H](c1cn2ncc([C@H](NC(=O)CCCF)C3CC3)cc2n1)C1CCC(F)(F)CC1 [Example 251, N—((S)-(7-((R)-Cyclopropyl(4-fluorobutanamido)methyl)imidazo[1,2-b]pyridazin-2-yl)(4,4-difluorocyclohexyl)methyl)-1-isopropyl-1H-pyrazole-5-carboxamide]
IC50 [1]: 770 nM | IC50 [2]: 200 nM

Cc1nonc1C(=O)N[C@H](c1cn2ncc([C@H](NC(=O)CCCF)C3CC3)cc2n1)C1CCC(F)(F)CC1 [Example 252, N—((S)-(7-((R)-Cyclopropyl(4-fluorobutanamido)methyl)imidazo[1,2-b]pyridazin-2-yl)(4,4-difluorocyclohexyl)methyl)-4-methyl-1,2,5-oxadiazole-3-carboxamide]
IC50 [1]: 7700 nM | IC50 [2]: 640 nM

Cc1nonc1C(=O)N[C@H](c1cn2ncc([C@H](NC(=O)CC(C)(C)C(F)(F)F)C3CC3)cc2n1)C1CCC(F)(F)CC1 [Example 253, N—((S)-(7-((R)-Cyclopropyl(4,4,4-trifluoro-3,3-dimethylbutanamido)methyl)imidazo[1,2-b]pyridazin-2-yl)(4,4-difluorocyclohexyl)methyl)-4-methyl-1,2,5-oxadiazole-3-carboxamide]
IC50 [1]: 760 nM | IC50 [2]: 220 nM
